Active and inactive are the calls of the source. No cut-off for these calls is given here.
Columns and labels:
[1] = test system: 769-P; experiment: Cytotoxicity against human 769-P cells by MTT assay; type: functional, cell-based
[2] = Cytotoxicity against human ECA109 cells by MTT assay; type: functional, cell-based; conditions: ECa-109
[3] = Cytotoxicity against human BGC823 cells by MTT assay; type: functional, cell-based; conditions: BGC-823
[4] = test system: HepG2; experiment: Cytotoxicity against human HepG2 cells by MTT assay; type: functional, cell-based
[5] = test system: HT-29; experiment: Cytotoxicity against human HT-29 cells by MTT assay; type: functional, cell-based
[6] = Cytotoxicity against human SKOV3 cells by MTT assay; type: functional, cell-based; conditions: SK-OV-3
[7] = test system: MCF7; experiment: Cytotoxicity against human MCF7 cells by MTT assay; type: functional, cell-based
[8] = test system: A-375; experiment: Cytotoxicity against human A375 cells by MTT assay; type: functional, cell-based
[9] = test system: CWR22R; experiment: Cytotoxicity against human 22Rv1 cells by MTT assay; type: functional, cell-based
[10] = Cytotoxicity against mouse LLC cells by MTT assay; type: functional, cell-based; conditions: Lewis lung carcinoma
[11] = test system: Chorioallantoic membrane; experiment: Antiangiogenic activity in chicken chorioallantoic membrane at 50 to 200 uM after 48 hrs by microscopic analysis; type: functional; conditions: Gallus gallus
[12] = test system: Chorioallantoic membrane; experiment: Antiangiogenic activity in chicken chorioallantoic membrane at 200 uM after 48 hrs by microscopic analysis; type: functional; conditions: Gallus gallus

Row | Structure (SMILES) | IC50 [1] [µM] | IC50 [2] [µM] | IC50 [3] [µM] | IC50 [4] [µM] | IC50 [5] [µM] | IC50 [6] [µM] | IC50 [7] [µM] | IC50 [8] [µM] | IC50 [9] [µM] | IC50 [10] [µM] | inhibition [11] | inhibition [12]
1 | Cn1c2ccccc2c2cc(CN3CCN(Cc4cc5c6ccccc6n(C)c5c(-c5ccccc5)n4)CC3)nc(-c3ccccc3)c21 | > 100 | > 100 | > 100 | > 100 | > 100 | > 100 | > 100 | 40.9 | 54.3 | 34.5 |  | 
2 | COc1cc(-c2nc(CN3CCN(Cc4cc5c6ccccc6n(C)c5c(-c5cc(OC)c(OC)c(OC)c5)n4)CC3)cc3c4ccccc4n(C)c23)cc(OC)c1OC | > 100 | 26.3 | 45.3 | > 100 | > 100 | 18.9 | 65.6 | 64.2 | > 100 | 39 |  | 
3 | Fc1ccc(Cn2c3ccccc3c3cc(CN4CCN(Cc5cc6c7ccccc7n(Cc7ccc(F)cc7)c6cn5)CC4)ncc32)cc1 | 29 | 24.7 | 85.6 | 76.3 | 18.3 | 8.43 | 72.8 | 46 | 60.6 | 15.9 |  | 
4 | Cc1nc(CN2CCN(Cc3cc4c5ccccc5n(CC(C)C)c4c(C)n3)CC2)cc2c3ccccc3n(CC(C)C)c12 | 12.7 | 14.3 | 10.8 | 9.66 | 11.3 | 16 | 7.16 | 13 | 12.5 | 7.68 | Active | 
5 | CCCCn1c2ccccc2c2cc(CN3CCN(Cc4cc5c6ccccc6n(CCCC)c5cn4)CC3)ncc21 | 38.2 | 26.4 | 9.52 | 15.2 | 17.1 | 11.3 | 29.2 | 16.8 | 43.9 | 2.36 |  | 
6 | COc1ccc(-c2nc(CN3CCN(Cc4cc5c6ccccc6n(CCCc6ccccc6)c5c(-c5ccc(OC)cc5)n4)CC3)cc3c4ccccc4n(CCCc4ccccc4)c23)cc1 | > 100 | > 100 | > 100 | > 100 | > 100 | > 100 | > 100 | > 100 | > 100 | > 100 |  | 
7 | CCCCn1c2ccccc2c2cc(CN3CCN(Cc4cc5c6ccccc6n(CCCC)c5c(-c5ccc(OC)cc5)n4)CC3)nc(-c3ccc(OC)cc3)c21 | 16.6 | 24.7 | 28.8 | 25.7 | 11.8 | 24.6 | 20.6 | 19.6 | 27.6 | 27.4 |  | 
8 | COc1ccc(-c2nc(CN3CCN(Cc4cc5c([nH]c6ccccc65)c(-c5ccc(OC)cc5)n4)CC3)cc3c2[nH]c2ccccc23)cc1 | > 100 | > 100 | > 100 | > 100 | > 100 | > 100 | > 100 | > 100 | > 100 | > 100 |  | 
9 | COc1ccc(-c2nc(CN3CCN(Cc4cc5c6ccccc6n(Cc6ccccc6)c5c(-c5ccc(OC)c(OC)c5)n4)CC3)cc3c4ccccc4n(Cc4ccccc4)c23)cc1OC | > 100 | > 100 | > 100 | > 100 | > 100 | > 100 | > 100 | > 100 | > 100 | 36.4 |  | 
10 | Cc1nc(CN2CCN(Cc3cc4c5ccccc5n(Cc5cccc(Cl)c5)c4c(C)n3)CC2)cc2c3ccccc3n(Cc3cccc(Cl)c3)c12 | 45.8 | 57.6 | 40.8 | 38.1 | 25.2 | 51.4 | 43.7 | 32.4 | 40.8 | 12 |  | 
11 | c1ccc(CCCn2c3ccccc3c3cc(CN4CCN(Cc5cc6c7ccccc7n(CCCc7ccccc7)c6c(-c6ccccc6)n5)CC4)nc(-c4ccccc4)c32)cc1 | > 100 | > 100 | > 100 | > 100 | > 100 | > 100 | > 100 | > 100 | > 100 | > 100 |  | 
12 | c1ccc(Cn2c3ccccc3c3cc(CN4CCN(Cc5cc6c7ccccc7n(Cc7ccccc7)c6cn5)CC4)ncc32)cc1 | > 100 | > 100 | > 100 | 65.4 | 36.8 | 46.5 | > 100 | > 100 | > 100 | 79.8 |  | 
13 | CCCCn1c2ccccc2c2cc(CN3CCN(Cc4cc5c6ccccc6n(CCCC)c5c(-c5cc(OC)c(OC)c(OC)c5)n4)CC3)nc(-c3cc(OC)c(OC)c(OC)c3)c21 | 15.6 | 18.3 | 26.6 | 7.26 | 13.5 | 7.11 | 12.5 | 36 | 6.82 | 19.8 |  | 
14 | CCn1c2ccccc2c2cc(CN3CCN(Cc4cc5c6ccccc6n(CC)c5c(-c5ccccc5)n4)CC3)nc(-c3ccccc3)c21 | 29.6 | > 100 | 38.8 | > 100 | 17.6 | 19.8 | > 100 | 9.92 | 24.9 | 14 |  | 
15 | CCn1c2ccccc2c2cc(CN3CCN(Cc4cc5c6ccccc6n(CC)c5c(-c5ccc(OC)c(OC)c5)n4)CC3)nc(-c3ccc(OC)c(OC)c3)c21 | 61.1 | 68.5 | 19.8 | 27.2 | 34.3 | 32.7 | 27.3 | 37.3 | 42.3 | 9.68 |  | 
16 | c1ccc(Cn2c3ccccc3c3cc(CN4CCN(Cc5cc6c7ccccc7n(Cc7ccccc7)c6c(-c6ccccc6)n5)CC4)nc(-c4ccccc4)c32)cc1 | > 100 | > 100 | > 100 | > 100 | > 100 | > 100 | > 100 | > 100 | > 100 | > 100 |  | 
17 | CCn1c2ccccc2c2cc(CN3CCN(Cc4cc5c6ccccc6n(CC)c5cn4)CC3)ncc21 | 64.3 | > 100 | 68.6 | > 100 | 32.8 | 24.4 | 82.8 | 49.9 | 52.3 | 13.8 |  | 
18 | Cc1nc(CN2CCN(Cc3cc4c5ccccc5n(C)c4c(C)n3)CC2)cc2c3ccccc3n(C)c12 | > 100 | > 100 | 78.5 | > 100 | > 100 | 31 | > 100 | > 100 | 86.3 | 61.8 |  | 
19 | COc1cc(-c2nc(CN3CCN(Cc4cc5c([nH]c6ccccc65)c(-c5cc(OC)c(OC)c(OC)c5)n4)CC3)cc3c2[nH]c2ccccc23)cc(OC)c1OC | > 100 | > 100 | > 100 | > 100 | > 100 | > 100 | > 100 | > 100 | > 100 | > 100 |  | 
20 | CCCCn1c2ccccc2c2cc(CN3CCN(Cc4cc5c6ccccc6n(CCCC)c5c(-c5ccc(OC)c(OC)c5)n4)CC3)nc(-c3ccc(OC)c(OC)c3)c21 | 10 | 32.4 | 6.21 | 17 | 11.8 | 25.7 | 14.5 | 15.5 | 19.5 | 9.78 |  | 
21 | COc1ccc(-c2nc(CN3CCN(Cc4cc5c6ccccc6n(Cc6ccccc6)c5c(-c5ccc(OC)cc5)n4)CC3)cc3c4ccccc4n(Cc4ccccc4)c23)cc1 | > 100 | > 100 | > 100 | > 100 | > 100 | > 100 | > 100 | > 100 | > 100 | 40.4 |  | 
22 | COc1ccc(-c2nc(CN3CCN(Cc4cc5c6ccccc6n(C)c5c(-c5ccc(OC)cc5)n4)CC3)cc3c4ccccc4n(C)c23)cc1 | > 100 | 68.5 | 56.3 | 55 | 29 | 57.8 | > 100 | 45.7 | 47.8 | 69 |  | 
23 | c1ccc(CCCn2c3ccccc3c3cc(CN4CCN(Cc5cc6c7ccccc7n(CCCc7ccccc7)c6cn5)CC4)ncc32)cc1 | 3.02 | 24.6 | 7.62 | 8.95 | 18.7 | 5.51 | 7.62 | 8.35 | 5.32 | 5.15 |  | 
24 | COc1cc(-c2nc(CN3CCN(Cc4cc5c6ccccc6n(CCCc6ccccc6)c5c(-c5cc(OC)c(OC)c(OC)c5)n4)CC3)cc3c4ccccc4n(CCCc4ccccc4)c23)cc(OC)c1OC | > 100 | > 100 | > 100 | > 100 | > 100 | > 100 | > 100 | > 100 | > 100 | > 100 |  | 
25 | COc1ccc(/C=C\c2cc(OC)c(OC)c(OC)c2)cc1OP(=O)(O)O |  |  |  |  |  |  |  |  |  |  |  | Active
26 | COc1ccc(-c2nc(CN3CCN(Cc4cc5c6ccccc6n(CCCc6ccccc6)c5c(-c5ccc(OC)c(OC)c5)n4)CC3)cc3c4ccccc4n(CCCc4ccccc4)c23)cc1OC | > 100 | > 100 | > 100 | > 100 | > 100 | > 100 | > 100 | > 100 | > 100 | > 100 |  | 
